# Measurements reported in patent publication US20050288502A1, “Substituted heterocyclic compounds and methods of use” (priority 2004, published 2005).
# Tested on: TNF-α
# Experiment: Lipopolysaccharide-activated THP1 cell TNF production assay (LPS induced TNF release)
# Type: cell-based
# Conditions: Homo sapiens, THP-1; THP1 cells, bacterial LPS, secreted TNF-α after 3 h at 37° C.
# Procedure: Lipopolysaccharide-Activated THP1 Cell TNF Production Assay
# THP1 cells are resuspended in fresh THP1 media (RPMI 1640, 10% heat-inactivated FBS, 1XPGS, 1XNEAA, plus 30 μM βME) at a concentration of 1E6/mL. One hundred microliters of cells per well are plated in a polystyrene 96-well tissue culture. One microgram per mL of bacterial LPS is prepared in THP1 media and is transferred to the wells. Test compounds are dissolved in 100% DMSO and are serially diluted 3 fold in a polypropylene 96-well microtiter plate (drug plate). HI control and LO control wells contain only DMSO. One microliter of test compound from the drug plate followed by 10 μL of LPS are transferred to the cell plate. The treated cells are induced to synthesize and secrete TNF-α at 37° C. for 3 h. Forty microliters of conditioned media are transferred to a 96-well polypropylene plate containing 110 μL of ECL buffer (50 mM Tris-HCl pH 8.0, 100 mM NaCl, 0.05% Tween 20, 0.05% NaN3 and 1% FBS) supplemented with 0.44 nM MAB610 monoclonal Ab (R&D Systems), 0.34 nM ruthenylated AF210NA polyclonal Ab (R&D Systems) and 44 μg/mL sheep anti-mouse M280 Dynabeads (Dynal). After a 2 h incubation at room temperature with shaking, the reaction is read on the ECL M8 Instrument (IGEN Inc.). A low voltage is applied to the ruthenylated TNF-α immune complexes, which in the presence of TPA (the active component in Origlo), results in a cyclical redox reaction generating light at […]. The amount of secreted TNF-α: in the presence of compound compared with that in the presence of DMSO vehicle alone (HI control) is calculated using the formula:% control (POC)=(cpd−average LO)/(average HI−average LO)*100. Data (consisting of POC and inhibitor concentration in μM) is fitted to a 4-parameter equation (y=A+((B−A)/(1+((x/C)ˆD))), where A is the minimum y (POC) value, B is the maximum y (POC), C is the x (cpd concentration) at the point of inflection and D is the slope factor) using a Levenburg-Marquardt non-linear regression algorithm.
row,IC50,Compound
1,≤ 20 µM,C[C@@H](Cc1cccc(S(N)(=O)=O)c1)Nc1nccc(N(C)c2nc(-c3ccccc3)cc3ncnn23)n1
2,≤ 20 µM,C[C@@H](Cc1cccc(S(=O)(=O)N(C)CCN(C)C)c1)Nc1nccc(N(C)c2nc(-c3ccccc3)cc3ncnn23)n1
3,≤ 20 µM,Cc1cc(N(C)c2nc(-c3ccccc3)cc3ncnn23)nc(N[C@@H](C)Cc2cccc(CN)c2)n1
4,≤ 20 µM,"CN(c1ccnc(NC2CCN(C(=O)OC(C)(C)C)CC2)n1)c1nc(-c2ccccc2)cc2ncnn12 [4-{4-[methyl-(7-phenyl-[1,2,4]triazolo[1,5-c]pyrimidin-5-yl)-amino]-pyrimidin-2-ylamino}-piperidine-1-carboxylic acid tert-butyl ester]"
5,≤ 20 µM,"C[C@@H](Nc1nccc(Nc2nc(-c3ccccc3)cc3ncnn23)n1)c1ccccc1 [(R)-N^2-(1-Phenyl-ethyl)-N^4-(7-phenyl-[1,2,4]triazolo[1,5-c]pyrimidine-5-yl)-pyrimidine-2,4-diamine]"
6,≤ 20 µM,"C[C@@H](Cc1cccc(CN)c1)Nc1nccc(N(C)c2nc(-c3ccccc3)cc3ncnn23)n1 [(S)-N^2-[2-(3-aminomethyl-phenyl)-1-methyl-ethyl]-N^4-methyl-N^4-(7-phenyl-[1,2,4]triazolo[1,5-c]pyrimidin-5-yl)-pyrimidine-2,4-diamine]"
7,≤ 20 µM,"C[C@@H](Cc1cccc(CO)c1)Nc1nccc(N(C)c2nc(-c3ccccc3)cc3ncnn23)n1 [(S)-[3-(2-{4-[methyl-(7-phenyl-[1,2,4]triazolo[1,5-c]pyrimidine-5-yl)-amino]-pyrimidin-2-ylamino}-propyl)-phenyl]-methanol]"
8,≤ 20 µM,"C[C@H](Nc1nccc(Nc2nc(-c3ccccc3)cc3ncnn23)n1)c1ccccc1 [Example 7, (S)—N^2-(1-phenyl-ethyl)-N^4-(7-phenyl-[1,2,4]triazolo[1,5-c]pyrimidine-5-yl)-pyrimidine-2,4-diamine]"
9,≤ 20 µM,"C[C@@H](Cc1ccccc1)Nc1nccc(N(C)c2nc(-c3ccccc3)cc3ncnn23)n1 [Example 10, N^4-methyl-N^2-(S)-(1-methyl-2-phenyl-ethyl)-N^4-(7-phenyl-[1,2,4]triazolo[1,5-c]pyrimidine-5-yl)-pyrimidine-2,4-diamine]"
10,≤ 20 µM,Cc1cc(N(C)c2nc(-c3ccccc3)cc3ncnn23)nc(N[C@@H](C)Cc2cccc([C@@H](C)N)c2)n1 [Example 35]
11,≤ 20 µM,"CC(Cc1cccc(CN)c1)Nc1nccc(N(C)c2nc(-c3ccccc3)cc3nccn23)n1 (stereo not drawn) [N2-[2-(3-Aminomethyl-phenyl)-1-methyl-ethyl]-N4-methyl-N4-(7-phenyl-imidazo[1,2-c]pyrimidin-5-yl)-pyrimidine-2,4-diamine]"
12,≤ 20 µM,"CC(Cc1ccccc1)Nc1nccc(Nc2nc(-c3ccccc3)cc3ncnn23)n1 (stereo not drawn) [N^2-(1-methyl-2-phenyl-ethyl)-N^4-(7-phenyl-[1,2,4]triazolo[1,5-c]pyrimidine-5-yl)-pyrimidine-2,4-diamine]"
13,≤ 20 µM,"CC(Cc1cccc(CN)c1)Nc1nccc(N(C)c2cc(-c3ccccc3)cc3ncnn23)n1 (stereo not drawn) [N^2-[2-(3-Aminomethyl-phenyl)-1-methyl-ethyl]-N^4-methyl-N^4-(7-phenyl-[1,2,4]triazolo[1,5-a]pyridin-5-yl)-pyrimidine-2,4-diamine]"
14,≤ 20 µM,"CC(Cc1cccc(CN)c1)Nc1nccc(N(C)c2nc(-c3ccccc3)cc3ncnn23)n1 (stereo not drawn) [N^2-[2-(3-aminomethyl-phenyl)-1-methyl-ethyl]-N^4-methyl-N^4-(7phenyl-[1,2,4]triazolo[1,5-c]pyrimidin-5-yl)-pyrimidine-2,4-diamine]"
15,≤ 20 µM,"CC(Cc1cccc(C(C)N)c1)Nc1nccc(N(C)c2nc(-c3ccccc3)cc3ncnn23)n1 (stereo not drawn) [N^2-{2-[3-(1-amino-ethyl)-phenyl]-1-methyl-ethyl}-N^4-methyl-N^4-(7-phenyl-[1,2,4]triazolo[1,5-c]pyrimidine-5-yl)-pyrimidine-2,4-diamine]"
16,≤ 20 µM,"CC(Cc1cccc(CO)c1)Nc1nccc(N(C)c2nc(-c3ccccc3)cc3nccn23)n1 (stereo not drawn) [[3-(2-{4-[Methyl-(7-phenyl-imidazo[1,2-c]pyrimidin-5-yl)-amino]-pyrimidin-2-ylamino}-propyl)-phenyl]-methanol]"
17,≤ 20 µM,"CC(Cc1cccc(CO)c1)Nc1nccc(N(C)c2nc(-c3ccccc3)cc3ncnn23)n1 (stereo not drawn) [[3-(2-{4-[methyl-(7-phenyl-[1,2,4]triazolo[1,5-c]pyrimidine-5-yl)-amino]-pyrimidin-2-ylamino}-propyl)-phenyl]-methanol]"

row,Compound,IC50
1,"c1ccc(CCNc2nccc(Nc3nc(-c4ccccc4)cc4ncnn34)n2)cc1 [Example 4, N^2-phenethyl-N^4-(7-phenyl-[1,2,4]triazolo[1,5-c]pyrimidine-5-yl)-pyrimidine-2,4-diamine]",≤ 20 µM
